For test [1], the system named is Escherichia coli. Put plainly: Antimicrobial activity against qnrS1-positive ampicillin-resistant Escherichia coli isolate 7 expressing gyrA S83L/D87N and parC S80I mutants by Etest.
The subject of test [2] is Escherichia coli. Put plainly: Antimicrobial activity against qnrS1-positive multidrug-resistant Escherichia coli isolate 10 expressing gyrA S83L/D87N and parC S80I mutants by Etest.
For test [3], the system named is Escherichia coli. Put plainly: Antimicrobial activity against qnrS1-positive multidrug-resistant Escherichia coli isolate 4 expressing gyrA S83L/D87N and parC S80I mutants by Etest.
Test [4] concerns Escherichia coli. Put plainly: Antimicrobial activity against qnrS1-positive multidrug-resistant Escherichia coli isolate 3 expressing beta-lactamase CTX-M-15, gyrA S83L/D87N and parC S80I mutant by Etest.
Test [5] relates to Escherichia coli. Put plainly: Antimicrobial activity against qnrS1-positive ampicillin-resistant Escherichia coli isolate 8 expressing gyrA S83L/D87N and parC S80I mutants by Etest.
Test [6] has as its system Escherichia coli. Put plainly: Antimicrobial activity against qnrS1-positive multidrug-resistant Escherichia coli isolate 9 expressing gyrA S83L/D87N and parC S80I mutants by Etest.
Test [7] deals with Escherichia coli. Put plainly: Antimicrobial activity against Escherichia coli harboring plasmid carrying qnrS1 gene by Etest.
In test [8] the test system is Escherichia coli. Put plainly: Antimicrobial activity against qnrS1-positive ampicillin and amoxicillin-resistant Escherichia coli isolate 6 expressing gyrA S83L/D87N and parC S80I mutants by Etest.

For orientation: MIC means the lowest concentration found to suppress growth.

In brackets after ≈: the same amount, converted by molar mass.

On to `O=C(O)c1cn(C2CC2)c2cc(N3CCNCC3)c(F)cc2c1=O` [CIPROFLOXACIN], for which the minimum inhibitory concentration (MIC) with Escherichia coli [1] came out at 128 µg/mL (≈ 386 µM); against Escherichia coli [2] it was 128 µg/mL (≈ 386 µM); in the test with Escherichia coli [3], 64 µg/mL (≈ 193 µM); with Escherichia coli [4], 64 µg/mL (≈ 193 µM); against Escherichia coli [5], 128 µg/mL (≈ 386 µM); in the test with Escherichia coli [6], 128 µg/mL (≈ 386 µM). The MIC with Escherichia coli [7] came out at 0.032 µg/mL (≈ 0.0966 µM); against Escherichia coli [8], 64 µg/mL (≈ 193 µM).
